Patent US9029337B2, “Modulation of factor 7 expression” (Isis Pharmaceuticals, Inc., priority 2007, dated 2015)
e = 2'-O-(2-methoxyethyl) (MOE); d = 2'-deoxy (DNA)

How the values were obtained:
platelet factor-4 (PF-4) = assay: Thrombus formation by real-time RT-PCR quantification of PF-4 in the FeCl3 induced venous thrombosis model; assay type: in vivo, mouse; conditions: for PF-4 (percentage of PF-4 as compared to the PBS-treated control groups): BALB/c mice, vena cava, FeCl3
Description: Three groups of BALB/c mice were injected with 25 mg/kg, 37.5 mg/kg, or 50 mg/kg of ISIS 403102, administered subcutaneously twice a week for 3 weeks. Two control groups of BALB/c mice were treated with PBS, administered subcutaneously twice a week for 3 weeks. Thrombus formation was induced with FeCl3 in half of the mice while the rest of the mice were assayed for tail bleeding. Two days after receiving the last dose of ISIS 403102 or PBS, mice were anesthetized with 150 mg/kg ketamine mixed with 10 mg/kg xylazine administered by intraperitoneal injection. Thrombus formation was induced with FeCl3 in all groups of the VT mice except the first control group.
In mice undergoing FeCl3 treatment, thrombus formation was induced by applying a piece of filter paper (2×4 mm) pre-saturated with 10% FeCl3 solution directly on the vena cava. After 3 minutes of exposure, the filter paper was removed. Thirty minutes after the filter paper application, a fixed length of the vein containing the thrombus was dissected out for platelet analysis. Liver was collected for RNA analysis.
(§1) Real-time RT-PCR quantification of platelet factor-4 (PF-4) was used to quantify platelets in the vena cava as a measure of thrombus formation. Results are presented as a percentage of PF-4 in ISIS 403102, as compared to the two PBS-treated control groups. […] Therefore, antisense oligonucleotides are useful for inhibiting thrombus and clot formation.
ISIS 403102 and warfarin (Coumadin®) were evaluated in BALB/c mice. Four groups of BALB/c mice were treated with 5 mg/kg, 10 mg/kg, 20 mg/kg, or 40 mg/kg of ISIS 403102, administered subcutaneously twice a week for 3 weeks. Two days after receiving the last dose of ISIS 403102, mice were anesthetized with 150 mg/kg ketamine mixed with 10 mg/kg xylazine administered by intraperitoneal injection. Six additional groups of BALB/c mice was treated with 0.5 mg/kg, 1 mg/kg, 2 mg·kg, 3 mg/kg, 4 mg/kg, or 5 mg/kg of warfarin, administered intraperioneally daily for 6 days. Four hours after the last dose of warfarin, mice were sacrificed. A control group of BALB/c mice were treated with PBS, administered subcutaneously twice a week for 3 weeks. Two days after the last dose of PBS, mice were anesthetized with 150 mg/kg ketamine mixed with 10 mg/kg xylazine administered by intraperitoneal injection. Thrombus formation was induced with FeCl3 in groups of mice except the first control group.
as §1, with “403102 or warfarin treated mice,” for “403102,”, “Therefore, ISIS” for “Therefore,”

BALB/c mice = assay: Tail bleeding assay; assay type: in vivo, mouse; conditions: mouse, in vivo
Description: (§2) Mice not receiving treatment with FeCl3 solution were evaluated in a tail bleeding chamber. Mice were placed into the bleeding chamber two days after the final treatment of ISIS 403102 or PBS. Mice were anesthetized in the chamber with isofluorane and a small piece of tail (approximately 4 mm from the tip) was cut with sterile scissors. The cut tail was immediately placed in a 15 mL Falcon tube filled with approximately 10 mL of 0.9% NaCl buffer solution warmed to 37° C. The blood was collected over the course of 40 minutes. The saline filled tubes were weighed both before and after bleeding.
Tail-bleeding was measured to observe whether treatment with ISIS 403102 or warfarin causes internal hemorrhage in mice. ISIS 403102 and warfarin (Coumadin®) were evaluated in the tail bleeding assay. Six groups of BALB/c mice were treated with 1.25 mg/kg, 2.5 mg/kg, 5 mg/kg, 10 mg/kg, 20 mg/kg, or 40 mg/kg of ISIS 403102, administered subcutaneously twice a week for 3 weeks. An additional 6 groups of BALB/c mice were treated with 0.5 mg/kg, 1 mg/kg, 2 mg/kg, 3 mg/kg, 4 mg/kg, and 5 mg/kg of warfarin, administered intraperioneally daily for 6 days. A separate control group of BALB/c mice was treated with PBS, administered subcutaneously twice a week for 3 weeks.
as §2, with “Two” for “Mice not receiving treatment with FeCl3 solution were evaluated in a tail bleeding chamber. Mice were placed into the bleeding chamber two”, “403102, warfarin,” for “403102”, “PBS, mice were placed in a tail bleeding chamber.” for “PBS.”
ISIS 403102 and Apixaban were evaluated in BALB/c mice. In a first group of BALB/c mice, 40 mg/kg of ISIS 403102 was administered subcutaneously twice a week for 3 weeks. An additional 3 groups of BALB/c mice were treated with 5 mg/kg and 10 mg/kg of Apixaban, administered in a single intraperitoneal dose, and 10 mg/kg of Apixaban administered as a single subcutaneous dose. A control group of BALB/c mice was treated with PBS, administered subcutaneously twice a week for 3 weeks.
as §2, with “Two” for “Mice not receiving treatment with FeCl3 solution were evaluated in a tail bleeding chamber. Mice were placed into the bleeding chamber two”, “PBS, mice were placed in a tail bleeding chamber. Mice from the groups treated with Apixaban were analyzed 30 minutes after the single dose.” for “PBS.”, “weighed” for “weighed both”

Sequence: CCATAGAACAGCTTCACAGG (sugars from the 5' end e5 d10 e5, backbone and methylation of C not given here) [ISIS 403102]
- PF-4 in comparison to the PBS control (platelet factor-4 (PF-4); Example 14, 25, 37.5, 50 mg/kg twice a week for 3 weeks): reduction of PF-4
- PF-4 (percentage of PF-4 as compared to the PBS-treated control groups) (platelet factor-4 (PF-4); Example 14, 25 mg/kg s.c. twice a week for 3 weeks): 34%
- PF-4 (percentage of PF-4 as compared to the PBS-treated control groups) (platelet factor-4 (PF-4); Example 14, 37.5 mg/kg s.c. twice a week for 3 weeks): 24%
- PF-4 (percentage of PF-4 as compared to the PBS-treated control groups) (platelet factor-4 (PF-4); Example 14, 50 mg/kg s.c. twice a week for 3 weeks): 24%
- PF-4 (percentage of PF-4 as compared to the PBS-treated control groups) (platelet factor-4 (PF-4); Example 16, 5 mg/kg s.c. twice a week for 3 weeks): 69%
- PF-4 (percentage of PF-4 as compared to the PBS-treated control groups) (platelet factor-4 (PF-4); Example 16, 10 mg/kg s.c. twice a week for 3 weeks): 22%
- PF-4 (percentage of PF-4 as compared to the PBS-treated control groups) (platelet factor-4 (PF-4); Example 16, 20 mg/kg s.c. twice a week for 3 weeks): 41%
- PF-4 (percentage of PF-4 as compared to the PBS-treated control groups) (platelet factor-4 (PF-4); Example 16, 40 mg/kg s.c. twice a week for 3 weeks): 38%
- PF-4 in comparison to the PBS control (platelet factor-4 (PF-4); Example 16, dosages of 5 mg/kg and higher, twice a week for 3 weeks): dose-dependent reduction of PF-4
- amount of bleeding in comparison to PBS treated mice (BALB/c mice): slight decrease in the amount of bleeding
- bleeding as compared to PBS control mice (BALB/c mice): did not significantly affect bleeding
- amount of bleeding in comparison to PBS treated mice (BALB/c mice; 50 mg/kg): Bleeding was the same
- Blood (g), tail bleeding (BALB/c mice; sc, 40 mg/kg): 0.10 g
- bleeding compared to PBS treated mice (BALB/c mice; sc, 40 mg/kg): less bleeding than PBS treated mice
